This note sets out measurements from US12605446B2, “PSMA-targeted immunotherapies for cancers” (THE METHODIST HOSPITAL, priority 2020, dated 2026).

Numbering of substitutions follows the chain as printed.

The test system of assay [1] is PSMA expression in VCaP cells. Description: PSMA expression after antiandrogen or androgen treatment, VCaP. Format: cell-based.
The test system of assay [2] is PSMA expression in LNCaP cells. In words: PSMA expression after antiandrogen or androgen treatment, LNCaP. Type of assay: cell-based.
Assay [3] has as its system PSMA-positive LNCaP cells. Description: Flow cytometric binding of anti-PSMA mAbs to prostate cancer cells. The note with it: mixed PC3 and LNCaP cells, 20 μg antibody, FITC anti-mouse IgG secondary antibody. As to the method: PC3 cells and […] cells are mixed and incubated with 20 μg of J591, our home-made mAb #1352, or […] as a negative control. Next, the cells were incubated with FITC anti-mouse IgG secondary antibody (Biolegend, cat #406001), followed by flow cytometric analysis.
(A2). Development of anti-PSMA mAbs and construction of PSMA-CARs. The process of PSMA-CAR T cell therapy development is shown in the flowchart (FIG. 13A). PSMA extracellular domain was produced in baculovirus-insect cell expression system as reported. Purified recombinant PSMA protein was used to immunized BALB/c mice. Out of 38 ELISA-positive hybridomas, seven were confirmed by flow cytometry for their antibody-specific binding to PSMA-positive LNCaP and VCaP cells, but not to PSMA-negative PC3 cells.
Background: Flow cytometry measures light scatter and fluorescence of single cells or particles in a stream.

Assay [4] relates to PSMA-positive prostate cancer cell lines LNCaP and VCaP. Description: Murine FCγRIII ADCC reporter bioassay. Type of assay: cell-based. The note with it: in vitro ADCC assay.

Take `CNC(=O)c1ccc(N2C(=S)N(c3ccc(C#N)c(C(F)(F)F)c3)C(=O)C2(C)C)cc1F` [enzalutamide]: the “PSMA mRNA levels” value is recorded as “increased” in assay [1] (10 μM enzalutamide, 48 hours) and “increased” in assay [2] (10 μM enzalutamide, 48 hours). Further, the PSMA protein levels entry in assay [1] (Enzalutamide, 72 hrs) is on record as “increased”; in assay [2] (Enzalutamide, 72 hrs), “increased”.
`C[C@]1(O)CC[C@H]2[C@@H]3CCC4=CC(=O)CCC4=C3C=C[C@@]21C` [R1881]: the “PSMA mRNA levels” value in assay [1] (10 nM R1881) and in assay [2] (10 nM R1881) was “reduced” throughout.

B1: #1207: anti-PSMA mouse monoclonal antibody of hybridoma #1207; VH SEQ ID NO: 28, VL SEQ ID NO: 30 (antibody, V domains shown)
VH: VKLQQSGPGLVKPSQSLSLTCAVTGYSITSDYAWNWIRKFPGNKLEWMGYISYSGRTTYNPSLESRISITRDTSKNQFFLQLNSVTTEDTATYYCARCYYGSSSRWYGMDYWGRGTSVAVSS
VL: IVLTQSPAIMSASPGVKVTMTCRASSSVDSSYLHWYQQKSGASPQVWIYSTSNLASGVPARFSGSGSGTSYSLTISSVEAEDAATYYCQQYSGYPLTFGGGTKLEIKR
As to B1, in assay [3], the “binding to LNCaP cells by flow cytometry” value was “bind to LNCaP cells with high affinity”.

B2: #1366: anti-PSMA mouse monoclonal antibody of hybridoma #1366; VH SEQ ID NO: 20, VL SEQ ID NO: 22 (antibody, V domains shown)
VH: VKLQESGPGLVAPSQSLSITCTVSGFSLTDYGVSWIRQPPGKGLEWLGVIWSDGNTYYNSPLKSRLSINKDNSKSQVFLKMNSLQTDDSAMYYCARHKVYTMDYWGQGTSVTVSS
VL: B1 VL with I1T, V16E, D29S, G41S, Q45K, V46L, S50R, V78L, G100A, I106L
As for B2, in assay [3], the “binding to LNCaP cells by flow cytometry” value is reported as “bind to LNCaP cells with high affinity”.

B3: #1377: anti-PSMA mouse monoclonal antibody of hybridoma #1377; VH SEQ ID NO: 16, VL SEQ ID NO: 18 (antibody, V domains shown)
VH: VQLQQPGAALVRPGASVRLSCKASGYSFTYYWMNWVMQRPGQGLEWIGMIHPSDSETRLSQKFRDKATLTVDKSSSTVYMQLNSPTSDDSAVYYCARDGNFPYYALDYWGQGTSVTVSS
VL: DVVLTQAPLSLPVSLGDQASISCRSSQSLEYSNGNTYLHWYLQKPGQSPELLIYTVSNRFSGVPDRFSGSGSGTDFTLKIHRVEAEDLGVYFCSQSTHVPTFGGGTKLEIKR
Consider B3, for which the “binding to LNCaP cells by flow cytometry” value in assay [3] is listed as “bind to LNCaP cells with high affinity”.

B4: #1352: anti-PSMA mouse monoclonal antibody of hybridoma #1352; VH SEQ ID NO: 24, VL SEQ ID NO: 26 (antibody, V domains shown)
VH: VKLQQSGPELEKPGASVKISCKASGYSFTGYNVNWVKQSNGKSLEWIGNIDPYHGGTTYNQKFEAKATLTVDKSSSTAYMQLKSLTSEDSAVYYCARSSRFDYWGQGTTLTVSS
VL: DIVMTQSHKFMSTSVGDRVNITCKASQDVGTAVAWYQQKPGQSPKFLIYWASTRHTGVPDRFTGSGSGTDFTLTISNVQSEDLADYFCHQYTSYPFTFGSGTKLEMKR
On to B4, for which the “induction of ADCC activity” value in assay [4] is given as “most potent”. The “binding to LNCaP cells by flow cytometry” value in assay [3] is given as “detected as the FITC positive cells”.

B5: #219: anti-PSMA mouse monoclonal antibody of hybridoma #219; VH SEQ ID NO: 12, VL SEQ ID NO: 14 (antibody, V domains shown)
VH: B4 VH with K2Q, I19M, K37R, S39N, Y53L, E64K, K73R, M80L, S84N
VL: B4 VL with F46L, Y91F, K103S
B5: the “binding to LNCaP cells by flow cytometry” value in assay [3] is “bind to LNCaP cells with high affinity”.
